The source made the active and inactive calls. The calls are words filed in the database; no cut-off is given here.
What was measured:
[1] = target: T1, Cytohesin-2 (Homo sapiens) (UniProt Q99418); assay: Inhibition of human Arno Sec7 domain-mediated nucleotide exchange in delta17 Arf1 (17 to 181) at 1 mM by BODIPY-GTP based time resolved fluorescence assay relative to control
T1 sequence (whole entry): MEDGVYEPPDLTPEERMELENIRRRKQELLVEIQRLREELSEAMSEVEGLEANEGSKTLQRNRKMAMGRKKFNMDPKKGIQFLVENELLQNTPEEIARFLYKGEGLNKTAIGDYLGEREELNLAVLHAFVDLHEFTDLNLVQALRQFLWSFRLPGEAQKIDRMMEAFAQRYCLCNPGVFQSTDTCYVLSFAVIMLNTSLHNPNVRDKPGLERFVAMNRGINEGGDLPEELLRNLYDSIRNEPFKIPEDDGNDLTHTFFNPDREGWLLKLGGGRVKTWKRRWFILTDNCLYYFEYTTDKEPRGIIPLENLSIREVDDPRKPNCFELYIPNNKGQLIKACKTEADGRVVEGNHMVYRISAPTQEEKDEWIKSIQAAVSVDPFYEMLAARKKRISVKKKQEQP

[2] = target: T1, Cytohesin-2 (Homo sapiens); assay: Inhibition of human Alexa 488 labeled Arno Sec7 domain-mediated promiscuous aggregator activity in delta17 Arf1 (17 to 181) at 100 uM by fluorescence anisotropy assay
[3] = target: T1, Cytohesin-2 (Homo sapiens); assay: Inhibition of human Arno Sec7 domain […] delta17 Arf1 (17 to 181) at 1 mM after 15 mins by BODIPY-GTP based time resolved fluorescence assay relative to control
Cytohesin-2 [4] = target: T2, Cytohesin-2 (Homo sapiens, UniProt Q99418); assay: Binding affinity to human Arno Sec7 domain immobilized on CAP sensor chip after 15 mins by […]
T2 sequence (Q99418 whole entry): T1 sequence (whole entry)

[5] = target: T1, Cytohesin-2 (Homo sapiens); assay: Inhibition of human Arno Sec7 domain-mediated nucleotide exchange in delta17 Arf1 (17 to 181) at 2 mM by BODIPY-GTP based time resolved fluorescence assay relative to control
[6] = target: T1, Cytohesin-2 (Homo sapiens); assay: Binding affinity to human Arno Sec7 domain immobilized on CAP sensor chip at 1 mM after 15 mins by […]
Cytohesin-2 [7] = target: T2, Cytohesin-2; assay: Inhibition of human Arno Sec7 domain-mediated nucleotide exchange in delta17 Arf1 (17 to 181) by BODIPY-GTP based time resolved fluorescence assay; details: read-out: Ki(app)
[8] = target: T1, Cytohesin-2 (Homo sapiens); assay: Binding affinity to human Arno Sec7 domain immobilized on CAP sensor chip at 250 uM by surface plasmon resonance analysis
[9] = target: T1, Cytohesin-2 (Homo sapiens); assay: Inhibition of human Alexa 488 labeled Arno Sec7 domain-mediated promiscuous aggregator activity in delta17 Arf1 (17 to 181) at 1 to 100 uM by fluorescence anisotropy assay
[10] = target: T1, Cytohesin-2 (Homo sapiens); assay: Inhibition of human Alexa 488 labeled Arno Sec7 domain-mediated promiscuous aggregator activity in delta17 Arf1 (17 to 181) at >20 uM by fluorescence anisotropy assay

SMILES | inhibition [1] | inhibition [5] | Activity [6] | Ki (Cytohesin-2 [7]) | Activity [8] | other results
Cc1ccc(S(=O)(=O)Nc2cc(C)c(O)cc2C)cc1 | 66.7% | – | – | – | – | –
CC(C)(C)c1ccc(C(=O)NCc2ccco2)cc1 | – | – | – | – | – | inhibition [2]: Active
Cc1cc(O)cc(C)c1NS(=O)(=O)c1ccccc1 | – | 34.6% | Active | 3720 µM | Active | inhibition [3]: 30%; Kd (Cytohesin-2 [4]): 500 µM; inhibition [9]: inactive
CCN(CC)Cc1cc(NC(C)=O)ccc1O | – | – | inactive | – | Active | –
COc1ccc(S(=O)(=O)Nc2c(C)cc(O)cc2C)cc1 | 32.1% | – | – | 1610 µM | – | inhibition [3]: 35%
Cc1cc(NS(=O)(=O)c2ccccc2)cc(C)c1O | – | 31.2% | – | 5120 µM | – | –
COc1cc(C(=O)Nc2c(C)cc(O)cc2C)cc(OC)c1OC | – | 9.9% | Active | – | – | –
Cc1ccc(C)c(-c2csc(N)n2)c1 | – | 22.6% | Active | – | Active | inhibition [9]: inactive
Clc1ccccc1C(c1ccccc1)(c1ccccc1)n1ccnc1 | – | – | – | – | – | inhibition [10]: Active
O=S(=O)(Nc1ccccc1O)c1ccccc1 | 21.6% | – | inactive | – | – | –
O=C1CNC(=O)N1C12CC3CC(CC(C3)C1)C2 | – | – | inactive | – | Active | –
Cc1c(C(N)=O)sc(N)c1C(=O)OC(C)C | – | 37.9% | Active | – | inactive | inhibition [9]: inactive
Cc1cc(O)cc(C)c1NS(=O)(=O)c1ccc([N+](=O)[O-])cc1 | 58.4% | – | Active | 540 µM | – | –
Cc1c(O)ccc(NS(=O)(=O)c2ccccc2)c1C | – | 24.2% | – | – | – | –
Cc1ccc(S(=O)(=O)Nc2c(C)cc(O)cc2C)cc1 | 32.7% | – | – | 1910 µM | – | –
Cc1cc(O)cc(C)c1NC(=O)c1cccc([N+](=O)[O-])c1 | – | 16% | Active | – | – | –
Cc1cc(C)c(S(=O)(=O)Nc2ccc(O)cc2C)c(C)c1 | 51.5% | – | – | 980 µM | – | –
Cc1cc(O)ccc1NS(=O)(=O)c1cccs1 | – | 16.4% | Active | – | Active | inhibition [9]: inactive

Reference: ChEMBL document CHEMBL2440063, “Fragment-based identification of a locus in the Sec7 domain of Arno for the design of protein-protein interaction inhibitors” (J Med Chem, 2013)
